The conditions of data set [1]: in water; description of the solid particulate material in the composition table; cited from earlier work.
Data set [2] is described as follows: Tapped density, USP <616>. The format is physicochemical. The note with it: solid particulate material, description in composition table; equals tapped density of Active. The procedure: In addition to screen analysis, the tap density and the bulk density of the bonded microparticulates and solid particulate material were determined.
The nature of data set [3]: Sieve analysis (particle size) of solid particulate material and BMPX, USP <786>. The format is physicochemical. The note with it: solid particulate material; for Particle size: description in composition table. The source says: For example, to prepare tablets, certain excipients such as disintegrants, lubricants, glidants etc. may be added to the bonded microparticulates to further facilitate forming the tablet.

Data set [4] in a line: Solubility in water of solid particulate material (descriptive). The format is physicochemical. The procedure: In some embodiments, the solid particulate starting material is hydrophilic or hydrophobic or lipophilic in character. Solubility of drugs is measured by the amount of solvent needed to dissolve one part of the drug at a specific temperature. For example, a drug that is very soluble needs less than one part of solvent to dissolve one part of the drug. A drug that is considered freely soluble needs 1 to 10 parts of solvent, one that is soluble needs 10 to 30 parts of solvent, one that sparingly soluble need 30 to 100 parts of solvent, one that is slightly soluble needs 100-1,000 parts and one that is practically insoluble or insoluble needs more than 10,000 parts, per part of solute.

Setting [5] is: description in composition table.

Read-outs that look alike come from different tables or passages of the source.

As for `CCOC(=O)C1=C(COCCN)NC(C)=C(C(=O)OC)C1c1ccccc1Cl` (centres unmarked) [Amlodipine Besylate], the Solubility entry in data set [1] is given as “Solubility- insoluble in water”.

With `O=C([O-])[O-].[Ca+2]` [Calcium Carbonate], the Density result in data set [2] is recorded as “Density -1.2(High Density)”. Moreover, the “retain on 60mesh” value in data set [3] (60 mesh) is given as no less than 90% retain on 60mesh. For the compound `COc1ccccc1OCC(O)CO` (centres unmarked) [Guaifenesin], the Solubility result in data set [1] is given as “Solubility- soluble in water”.

With `CC(C)Cc1ccc(C(C)C(=O)O)cc1` (centres unmarked) [Ibuprofen], in data set [1], the Solubility entry is “Solubility- in soluble in water”. Take `OC[C@@H](O)[C@@H](O)[C@H](O)[C@H](O)CO` [Mannitol]: the Solubility result in data set [4] (in water) was “Solubility- insoluble in water”. Regarding `O=C(O)c1cccnc1` [Niacin], the Solubility entry in data set [1] is reported as “Solubility- soluble in water”. Consider `O=C([O-])O.[Na+]` [Sodium Bicarbonate, reference compound], for which, in data set [2], the Density entry was “Density -1.19 (High Density)-”. The “retain on 200#” value in data set [3] (200 mesh) came out at 70.8%. In data set [3], this compound showed a Particle size of 74 microns. With `OC[C@@H](O)[C@H](O)[C@@H](O)CO` [Xylitol-90], in data set [4] (in water), the Solubility result is “Solubility- soluble in water”.

As for `OC[C@@H](O)[C@H](O)[C@@H](O)CO` [Xylitol-300], the Solubility result in data set [4] (setting [5]) is “Solubility- soluble in water”. In addition, the Density result in data set [2] is on record as “Density -0.83 (High Density)”. Besides, the Particle size entry in data set [3] was “Particle size- 149 microns”.

Fructo-Oligosaccharide: the Solubility result in data set [4] (setting [5]) is given as “Solubility- soluble in water”. Also, the Density result in data set [2] is “Density -0.75 (High Density)”. The Particle size result in data set [3] is “Particle size- 149 microns”. With Sugar powder, the Solubility result in data set [4] (in water) is recorded as “Solubility- soluble in water”. Take Zinc Gluconate: the Density result in data set [2] is “Density- 0.6(Medium density)”. Besides, in data set [3], the Particle size entry is “Particle size- 177 microns”.

The record behind these values is patent US20250339374A1, “BONDED MICROPARTICULATES PREPARATION AND APPLICATIONS THEREOF” (Venkor Corporation, priority 2022, published 2025).
